What all share (type): in vivo, rat
The test system of assay [1] is MIA-induced OA rats. Briefly: von Frey test, single administration to MIA-induced OA rats. Conditions: for Recovery rate of 50% reaction threshold value (%): 1 hour after administration of test drug. On the procedure:
There were conducted the following experiments for testing the analgesic action of the analgesic of the present invention using the osteoarthritis (OA) rats induced by sodium monoiodoacetate (MIA) which were model animals for OA.
A 50% reaction threshold value to the mechanical stimulus of male Wistar rats of six weeks age was measured (the measuring method will be mentioned later) and a normal control group was selected. MIA prepared by saline was administered in a single dose of 0.3 mg/50 μL into right knee joint of the rats except the normal control group while 50 μL of saline was administered into left knee joint whereupon the MIA-induced OA rats were prepared. To the normal control group, 50 μL of saline was administered into the joints of both knees.
With regard to the male Wistar rats of six weeks age used as experimental animals except the normal control group, their 50% reaction threshold values to the mechanical stimulus (the measuring method will be mentioned later) and body weights were measured after 24 days from the administration of MIA mentioned in (1) and then 4 groups each comprising six rats [a normal control group, an onset control group, a test drug-administered group and a loxoprofen sodium hydrate (LOX)-administered group (a positive control)] were organized.
A test drug solution (0.1 mg/mL) using the compound 4 as a test drug and a LOX suspension (1 mg/mL) were prepared using a phosphate buffered saline (PBS) containing 0.1 vol % of dimethyl sulfoxide (DMSO) and a 0.5 w/v % aqueous solution of carboxymethyl cellulose, respectively.
Immediately after the grouping (after 24 days from the administration of MIA), a test drug solution was intraperitoneally administered in a single dose of 0.5 mg/kg to a test drug-administered group while, a LOX suspension was orally administered in a single dose of 5 mg/kg to a LOX-administered group. Meanwhile, to the normal control group and the onset control group, PBS containing 0.1 vol % of DMSO was intraperitoneally administered in a single dose.
The four groups of rats of the above (2) were placed in a transparent acrylic cage with a wire-meshed floor and habituated for about three minutes and the 50% reaction threshold values to the mechanical stimulus were measured after 1, 3, 5 and 24 hours from the administration of a test drug.
The measurement was conducted using von Frey filaments (manufactured by North Coast Medical Inc.) in accordance with the methods of Chaplan, et al. (Journal of Neuroscience Methods, vol. 53, no. 1, pages 55 to 63, 1994) and Dixon, et al. (Annual Review of Pharmacology and Toxicology; vol. 20, pages 441 to 462, 1980). […] The case where the rat escaped at the instance of removing the filament was also called positive. When the positive reaction was noted, stimulus was conducted similarly using a filament of one rank weaker while, when no reaction was noted, stimulus was conducted similarly using a filament of one rank stronger and the point when the reaction changed from negative to positive or from positive to negative was called the first two reactions. After that, stimulus was conducted for continuous four times by the same up-down method. A 50% reaction threshold value to the mechanical stimulus was measured using the reaction to the six stimuli in total and then (mean value)±(standard error) for each group was calculated. Incidentally, when stimulus reached by that of 15.0 g without positive reaction or, when positive reaction continued to 0.4 g, then 15.0 g or 0.25 g was adopted as each threshold value, respectively.
The test for significant difference was performed using the test in two groups (Student's t-test or Welch test) or Wilcoxon test between the normal control group and the onset control group, between the onset control group and the test drug-administered group, between the onset control group and the LOX-administered group and between the test drug-administered group and the LOX-administered group. […]

Assay [2] relates to MIA-induced OA rats. The assay is described as follows: von Frey test, repeated administration to MIA-induced OA rats. Particulars: for Recovery rate of 50% reaction threshold value (%): repeated administration, 1 hour after administration of test drug. How it is done:
Selection of the normal control group and preparation of MIA-induced OA rats were conducted in the same manner as in the above 1.(1).
With regard to the male Wistar rats of six weeks age used as experimental animals except the normal control group, their 50% reaction threshold values to the mechanical stimulus, weight bearing rate to a MIA-non-administered hind paw (the measuring method will be mentioned later) and body weights were measured after 27 days from the administration of MIA mentioned in (1) and then four groups each comprising six rats [a normal control group, an onset control group, a test drug-administered group and a LOX-administered group (a positive control)] were organized.
A test drug solution and an LOX suspension were prepared in the same manner as in the above 1.(2).
(§1) During eight days from immediately after the grouping (after 27 to 34 days from the administration of MIA), a test drug solution was intraperitoneally administered in repeated dose of 0.5 mg/kg to a test drug-administered group while, a LOX suspension was orally administered in repeated dose of 5 mg/kg to a LOX-administered group. Meanwhile, to the normal control group and the onset control group, PBS containing 0.1 vol % of DMSO was intraperitoneally administered repeatedly.
In the same manner as in the above 1.(4), the 50% reaction threshold values to the mechanical stimulus were measured after 1, 3, 5 and 24 hour(s) from the final administration of a test drug. Mean value±standard error for each group was calculated and the test for significant difference was done in the same manner as in the above 1.(4).
The analgesic of the present invention was repeatedly administered to the MIA-induced OA rat and a von Frey test was conducted in the same manner as in the above test 1.(4) whereupon each 50% reaction threshold value was measured. With regard to the 50% reaction threshold value after 1 hour from the administration of a test drug, a recovery rate (%) of the 50% reaction threshold value was calculated in the same manner as in the above test 1.(4).

Assay [3] has as its system MIA-induced OA rats. Briefly: Weight bearing rate to MIA-non-administered hind paw (dual channel weight averager), repeated administration. On the procedure: as §1
One hind paw of a rat where OA was induced by administration of MIA develops a pain symptom. Therefore, a body weight bearing to a painless hind paw to which no MIA was administered increases in a rat for avoiding the application of body weight to the hind paw after administration of MIA. […] Using this weight bearing rate to the MIA-non-administered hind paw as an index, the analgesic action of the analgesic of the present invention was measured.
The weight bearing rate to the MIA-non-administered hind paw was determined by the following formula after measuring the weight distribution to right and left hind paws of a rat using a device for evaluating the analgesic effect for small animals (Incapacitance Tester manufactured by Linton Instrumentation). Mean value±standard error for each group was also calculated and the test for significant difference was carried out in the same manner as in the above 1.(4). […]

In assay [4] the test system is experimental autoimmune neuritis (EAN) rats. The assay is described as follows: von Frey test in Guillain-Bareé syndrome model (EAN) rats. On the procedure: The following experiment for checking the analgesic action of the analgesic of the present invention was conducted using the experimental autoimmune neuritis (EAN) rats which were the model animals for Guillain-Bareé syndrome having an on set of chronic pain.
The 50% reaction threshold value to mechanical stimulus of female Lewis rats of seven weeks age were measured to select a normal control group. Left hind paw of each of the anesthetized rats except the normal control group was immunized by subcutaneous administration of 0.1 mL of an emulsion prepared by equivalent mixing of a 2 mg/mL solution of a peptide derived from bovine P2 protein (SP-26) with an adjuvant complete Freund H37Ra whereupon EAN rats were prepared.
The grouping was conducted and a test drug was administered in the same manner as in (2) and (3) of the Pharmacological Test II.
A von Frey test was carried out in the same manner as in 1.(4) of the above Pharmacological Test I to measure the 50% reaction threshold value to the mechanical stimulus to each group over time. The test for significant difference was conducted and recovery rate (%) of the 50% reaction threshold value was calculated in the same manner as in (4) of the above Pharmacological Test II.

The text below walks through data of patent US20130296426A1, “ANALGESIC” (NAGOYA INDUSTRIAL SCIENCE RESEARCH INSTITUTE, priority 2011, published 2013).

On to `CCCCCCC/C=C/C(=O)OCC` [Compound 4, Trans-2-decenoic acid ethyl ester], for which the “Recovery rate of 50% reaction threshold value (%)” value (“Recovery rate … (%)” for short) with MIA-induced OA rats [1] (single dose) is recorded as 61.6%; in assay [4] (0.25 mg/kg/day intraperitoneal once daily, After 8 days), 100.0^[…] %; in assay [4] (0.25 mg/kg/day intraperitoneal once daily, After 11 days) it was 40.1^[…] %; in assay [4] (0.25 mg/kg/day intraperitoneal once daily, After 25 days), 21.7^[…] %; in assay [4] (0.25 mg/kg/day intraperitoneal once daily, After 28 days), 24.2^[…] %; in assay [4] (0.50 mg/kg/day intraperitoneal once daily, After 8 days) it was 98.5^[…] %. Also, the “Recovery rate … (%)” value in assay [4] (0.50 mg/kg/day intraperitoneal once daily, After 11 days) is reported as 35.5%; in assay [4] (0.50 mg/kg/day intraperitoneal once daily, After 25 days), 38.3^[…] %; in assay [4] (0.50 mg/kg/day intraperitoneal once daily, After 28 days) it was 38.3^[…] %. The “50% reaction threshold value to the mechanical stimulus” value was “significantly high” in the assay on MIA-induced OA rats [1] (single intraperitoneal dose 0.5 mg/kg, 24 days after MIA, vs onset control group, FIG. 1); “significantly high” in the assay with MIA-induced OA rats [2] (repeated intraperitoneal 0.5 mg/kg for eight days, after 1 and 3 hour(s) from the final administration, vs onset control group, FIG. 2). In the assay on MIA-induced OA rats [3] (repeated intraperitoneal 0.5 mg/kg for eight days, vs onset control group, FIG. 3), the “weight bearing rate to the MIA-non-administered hind paw” value was “significantly decreased”.
Regarding `CCCCCCC/C=C/C(=O)OC` [Compound 3, Trans-2-decenoic acid methyl ester], the “Recovery rate … (%)” value stood at 32.4% in the assay with MIA-induced OA rats [1] (single dose) and 23.3% in the assay with MIA-induced OA rats [2].
With `C=CCCCCCCCCOC(=O)/C=C/CCCCCCC` [Compound 17, Trans-2-decenoic acid trans-9-decenyl ester], the “Recovery rate … (%)” value in the assay with MIA-induced OA rats [1] (single dose) worked out at 19.5%.
Consider `CCCCCCC/C=C/COC(=O)/C=C/CCCCCCC` [Compound 16, Trans-2-decenoic acid trans-2-decenyl ester], for which the entries for the “Recovery rate … (%)” value in the assay on MIA-induced OA rats [1] (single dose) and with MIA-induced OA rats [2] were 39.6% and 61.4%, respectively. Moreover, the “weight bearing rate to the MIA-non-administered hind paw” value in the assay on MIA-induced OA rats [3] (repeated intraperitoneal 0.5 mg/kg/day, FIG. 4) is on record as “significantly lowered”.
Turning to `CCCCCC/C=C/CC(=O)OCC` [Compound 20, Trans-3-decenoic acid ethyl ester], the “Recovery rate … (%)” value in the assay on MIA-induced OA rats [1] (single dose) is reported as 17.7%; in the assay on MIA-induced OA rats [2] it was 66.3%.
For the molecule `CCCCCCC/C=C/C(=O)OC1CCCCC1` [Compound 18, Trans-2-decenoic acid cyclohexyl ester], the “Recovery rate … (%)” value in the assay on MIA-induced OA rats [1] (single dose) is reported as 20.8%; with MIA-induced OA rats [2], 32.6%.
With `CC(C(=O)O)c1ccc(CC2CCCC2=O)cc1` (stereo not shown) [LOX, loxoprofen sodium hydrate, reference compound], the “suppressive action to hyperalgesia (50% reaction threshold value)” value in the assay with MIA-induced OA rats [1] (single oral dose 5 mg/kg, 24 days after MIA, vs onset control group, FIG. 1) is on record as “no significant suppressive action to hyperalgesia”.
Consider `CCCCCCC/C=C/C(=O)O` [trans-2-decenoic acid, reference compound], for which the “suppressive effect for hyperalgesia (50% reaction threshold value before vs after 1 hour from administration)” value in the assay with MIA-induced OA rats [1] (single dose, 1 hour after administration) is “no suppressive effect for hyperalgesia”.
Turning to `CCCCCCC/C=C/C(=O)OCCC` [Compound 5, Trans-2-decenoic acid propyl ester], the “Recovery rate … (%)” value in the assay with MIA-induced OA rats [1] (single dose) is 8.1%.
